Our source for the IC50 values is patent US20190388425A1, “SUBSTITUTED IMIDAZOPYRIDINPYRIMIDINES” (Bayer Pharma Aktiengesellschaft, priority 2017, published 2019).

In the assay the target is T1, human full-length MKNK1 (Homo sapiens, UniProt Q9BUB5, T385D).
T1 construct: GST (N); purchased Carna Biosciences 02-145; host or cells: insect cells (baculovirus expression system)
Kind of assay: MKNK1 kinase high ATP assay (TR-FRET). It counts as biochemical. In outline:
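Full-length human MKNK1 (T385D) preincubated 15 min at 22 °C with compound in HEPES pH 7.5/MgCl2/DTT buffer; reaction with 2 mM ATP (final) and 0.06 μM biotinylated peptide (final), 30 min at 22 °C.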
(Time-resolved FRET reads energy transfer from a long-lived donor to a nearby acceptor.)

[1] abbreviates: TR-FRET, 2 mM ATP (high ATP), 15 min preincubation with enzyme, 30 min reaction at 22° C., read-out: MKNK1 IC50.

SMILES strings stand for the structures. Like-named read-outs stand apart in the source and are kept apart here.

T1 sequence (Q9BUB5 1-424 isoform Q9BUB5-2 T344D): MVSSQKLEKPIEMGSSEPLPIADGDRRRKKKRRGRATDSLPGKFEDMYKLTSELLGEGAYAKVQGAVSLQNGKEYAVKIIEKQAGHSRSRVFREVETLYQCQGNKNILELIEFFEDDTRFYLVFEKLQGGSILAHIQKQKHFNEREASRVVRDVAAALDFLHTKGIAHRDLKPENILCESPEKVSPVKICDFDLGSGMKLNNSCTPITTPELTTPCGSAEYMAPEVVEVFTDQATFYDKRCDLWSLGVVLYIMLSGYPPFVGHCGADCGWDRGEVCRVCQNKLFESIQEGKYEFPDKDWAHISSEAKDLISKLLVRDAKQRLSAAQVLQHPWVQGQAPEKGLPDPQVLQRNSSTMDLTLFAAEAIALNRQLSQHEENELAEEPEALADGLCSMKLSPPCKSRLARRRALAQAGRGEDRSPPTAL

Consider `Cc1cc(Nc2ncnc3sc4c(c23)CC[C@H](C(=O)N2CC[C@H](N(C)C)C2)C4)c(=O)n2c1C(=O)NC21CCCC1` [Example 41, 6′-{[(7S)-7-{[(3S)-3-(Dimethylamino)pyrrolidin-1-yl]carbonyl}-5,6,7,8-tetrahydro[1]benzothieno[2,3-d]pyrimidin-4-yl]amino}-8′-methyl-2′H-spiro[cyclopentane-1,3′-imidazo[1,5-a]pyridine]-1′,5′-dione], for which the IC50 – broadly, the concentration that gives 50% inhibition – under setting [1] is 1.2 nM.
Same read-out and setting: the same measure for `Cc1cc(Nc2ncnc3sc4c(c23)CC[C@H](C(=O)N2CCC2)C4)c(=O)n2c1C(=O)NC21CCCC1` [Example 38, 6′-{[(7S)-7-(Azetidin-1-ylcarbonyl)-5,6,7,8-tetrahydro[1]benzothieno[2,3-d]pyrimidin-4-yl]amino}-8′-methyl-2′H-spiro[cyclopentane-1,3′-imidazo[1,5-a]pyridine]-1′,5′-dione]: 3.1 nM; for `Cc1cc(Nc2ncnc3sc4c(c23)CC[C@H](C(=O)N2CC(N(C)C)C2)C4)c(=O)n2c1C(=O)NC21CS(=O)(=O)C1` [Example 69, 6-{[(7S)-7-{[3-(Dimethylamino)azetidin-1-yl]carbonyl}-5,6,7,8-tetrahydro[1]benzothieno[2,3-d]pyrimidin-4-yl]amino}-8-methyl-2H-spiro[imidazo[1,5-a]pyridine-3,3′-thietane]-1,5-dione 1′,1′-dioxide]: 2 nM; for `N#CC1CN(C(=O)[C@H]2CCc3c(sc4ncnc(Nc5cc(Cl)c6n(c5=O)C5(CSC5)NC6=O)c34)C2)C1` [Example 104, 1-{(7S)-4-[(8-Chloro-1,5-dioxo-1,5-dihydro-2H-spiro[imidazo[1,5-a]pyridine-3,3′-thietan]-6-yl)amino]-5,6,7,8-tetrahydro[1]benzothieno[2,3-d]pyrimidine-7-carbonyl}azetidine-3-carbonitrile]: 0.2 nM.
In turn, `Cc1cc(Nc2ncnc3sc4c(c23)CC[C@H](C(=O)N2CCC(=O)CC2)C4)c(=O)n2c1C(=O)NC21CCCCC1` [Example 10, 8′-Methyl-6′-({(7S)-7-[(4-oxopiperidin-1-yl)carbonyl]-5,6,7,8-tetrahydro[1]benzothieno[2,3-d]pyrimidin-4-yl}amino)-2′H-spiro[cyclohexane-1,3′-imidazo[1,5-a]pyridine]-1′,5′-dione] had a half-maximal inhibitory concentration (IC50) of 0.3 nM.
Consider `CN(C)C(=O)[C@H]1CCc2c(sc3ncnc(Nc4cc(Cl)c5n(c4=O)C(C)(C)NC5=O)c23)C1` [Example 111, (7S)-4-[(8-Chloro-3,3-dimethyl-1,5-dioxo-1,2,3,5-tetrahydroimidazo[1,5-a]pyridin-6-yl)amino]-N,N-dimethyl-5,6,7,8-tetrahydro[1]benzothieno[2,3-d]pyrimidine-7-carboxamide], for which the IC50 under setting [1] turned out to be 0.3 nM.
Regarding `Cc1cc(Nc2ncnc3sc4c(c23)CC[C@H](C(=O)N2CC(C#N)C2)C4)c(=O)n2c1C(=O)NC21CCC1` [Example 22, 1-({(7S)-4-[(8′-Methyl-1′,5′-dioxo-1′,5′-dihydro-2′H-spiro[cyclobutane-1,3′-imidazo[1,5-a]pyridin]-6′-yl)amino]-5,6,7,8-tetrahydro[1]benzothieno[2,3-d]pyrimidin-7-yl}carbonyl)azetidine-3-carbonitrile], the IC50 under setting [1] stood at 0.5 nM.
Still for that read-out and setting: in the case of `Cc1cc(Nc2ncnc3sc4c(c23)CC[C@H](C(=O)N2CC(NC(=O)OC(C)(C)C)C2)C4)c(=O)n2c1C(=O)NC21CCCCC1` [Example 7, tert-Butyl [1-({(7S)-4-[(8′-methyl-1′,5′-dioxo-1′,5′-dihydro-2′H-spiro[cyclohexane-1,3′-imidazo[1,5-a]pyridin]-6′-yl)amino]-5,6,7,8-tetrahydro[1]benzothieno[2,3-d]pyrimidin-7-yl}carbonyl)azetidin-3-yl]carbamate] it was 4.2 nM; in that of `Cc1cc(Nc2ncnc3sc4c(c23)CC[C@H](C(=O)N2CC(N(C)C)C2)C4)c(=O)n2c1C(=O)NC21CCC1` [Example 23, 6′-{[(7S)-7-{[3-(Dimethylamino)azetidin-1-yl]carbonyl}-5,6,7,8-tetrahydro[1]benzothieno[2,3-d]pyrimidin-4-yl]amino}-8′-methyl-2′H-spiro[cyclobutane-1,3′-imidazo[1,5-a]pyridine]-1′,5′-dione], 0.4 nM.
As for `Cc1cc(Nc2ncnc3sc4c(c23)CC[C@H](C(=O)N2CCC2)C4)c(=O)n2c1C(=O)NC2(C)C` [Example 28, 6-{[(7S)-7-(Azetidin-1-ylcarbonyl)-5,6,7,8-tetrahydro[1]benzothieno[2,3-d]pyrimidin-4-yl]amino}-3,3,8-trimethyl-2,3-dihydroimidazo[1,5-a]pyridine-1,5-dione], the IC50 under setting [1] came out at 1 nM.
Consider `Cc1cc(Nc2ncnc3sc4c(c23)CC[C@H](C(=O)N2CCC2)C4)c(=O)n2c1C(=O)NC21CCC(F)(F)CC1` [Example 53, 6′-{[(7S)-7-(Azetidin-1-ylcarbonyl)-5,6,7,8-tetrahydro[1]benzothieno[2,3-d]pyrimidin-4-yl]amino}-4,4-difluoro-8′-methyl-2′H-spiro[cyclohexane-1,3′-imidazo[1,5-a]pyridine]-1′,5′-dione], for which the IC50 under setting [1] was 13.5 nM.
The same measure, in the same setting: in the case of `C[C@@H]1COCCN1C(=O)[C@H]1CCc2c(sc3ncnc(Nc4cc(Cl)c5n(c4=O)C4(CSC4)NC5=O)c23)C1` [Example 106, 8-Chloro-6-({(7S)-7-[(3R)-3-methylmorpholine-4-carbonyl]-5,6,7,8-tetrahydro[1]benzothieno[2,3-d]pyrimidin-4-yl}amino)-2H-spiro[imidazo[1,5-a]pyridine-3,3′-thietane]-1,5-dione] it was 0.3 nM.
On the same count and under the same terms, the same measure for `CC1(C)NC(=O)c2c(Cl)cc(Nc3ncnc4sc5c(c34)CC[C@H](C(=O)N3CC(C#N)C3)C5)c(=O)n21` [Example 113, 1-{(7S)-4-[(8-Chloro-3,3-dimethyl-1,5-dioxo-1,2,3,5-tetrahydroimidazo[1,5-a]pyridin-6-yl)amino]-5,6,7,8-tetrahydro[1]benzothieno[2,3-d]pyrimidine-7-carbonyl}azetidine-3-carbonitrile]: 0.2 nM.
Still for that read-out and setting: the same measure for `Cc1cc(Nc2ncnc3sc4c(c23)CC[C@H](C(=O)N2CC(N)C2)C4)c(=O)n2c1C(=O)NC21CCCCC1` [Example 11, 6′-({(7S)-7-[(3-Aminoazetidin-1-yl)carbonyl]-5,6,7,8-tetrahydro[1]benzothieno[2,3-d]pyrimidin-4-yl}amino)-8′-methyl-2′H-spiro[cyclohexane-1,3′-imidazo[1,5-a]pyridine]-1′,5′-dione]: 0.5 nM; for `Cc1cc(Nc2ncnc3sc4c(c23)CC[C@H](C(=O)N2CC(N(C)C)C2)C4)c(=O)n2c1C(=O)NC2(C)C` [Example 30, 6-{[(7S)-7-{[3-(Dimethylamino)azetidin-1-yl]carbonyl}-5,6,7,8-tetrahydro[1]benzothieno[2,3-d]pyrimidin-4-yl]amino}-3,3,8-trimethyl-2,3-dihydroimidazo[1,5-a]pyridine-1,5-dione]: 1.3 nM; for `Cc1cc(Nc2ncnc3sc4c(c23)CC[C@H](C(=O)O)C4)c(=O)n2c1C(=O)NC21CSC1` [Example 44, (7S)-4-[(8-Methyl-1,5-dioxo-1,5-dihydro-2H-spiro[imidazo[1,5-a]pyridine-3,3′-thietan]-6-yl)amino]-5,6,7,8-tetrahydro[1]benzothieno[2,3-d]pyrimidine-7-carboxylic acid]: 17.4 nM.
